In US9469615B2, “Quinoxalines and AZA-quinoxalines as CRTH2 receptor modulators” (Merck Sharp & Dohme Corp., priority 2010, dated 2016):
pKi: −log10 of the molar value.

Target: T1, hCRTH2 (Homo sapiens, UniProt Q9Y5Y4)
T1 construct: expressed in transfected cells; host or cells: HEK (human embryonic kidney) cells expressing hCRTH2; membrane preparation
T1 sequence (Q9Y5Y4 1-395): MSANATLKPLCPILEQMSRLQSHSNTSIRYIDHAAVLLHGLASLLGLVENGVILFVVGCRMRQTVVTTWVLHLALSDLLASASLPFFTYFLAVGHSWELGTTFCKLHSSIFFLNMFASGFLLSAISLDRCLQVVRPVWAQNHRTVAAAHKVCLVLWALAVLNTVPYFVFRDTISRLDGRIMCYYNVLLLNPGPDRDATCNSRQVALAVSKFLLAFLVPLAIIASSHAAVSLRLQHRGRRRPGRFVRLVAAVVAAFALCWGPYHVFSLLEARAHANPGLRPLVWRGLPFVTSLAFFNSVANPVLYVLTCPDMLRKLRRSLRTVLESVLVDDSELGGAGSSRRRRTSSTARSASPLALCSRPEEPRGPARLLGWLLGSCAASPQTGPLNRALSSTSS
Assay: Radioligand binding assay ([3H]PGD2 competition, HEK-hCRTH2 membranes)
Details: [3H]PGD2 competition, Table B
Summary of the method: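 Using membranes of an HEK line stably carrying hCRTH2, ligands were tested against [3H]PGD2 (3.0 nM) in pH 7.4 Tris buffer containing 2 mM MnCl2 and 1 mM EDTA. After one hour at room temperature, filters were washed cold and counted.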

Compound	pKi
CS(=O)(=O)N1CCC(NC(=O)c2ccc3nc(-c4ccccc4)c(CCCCC(=O)O)nc3c2)c2ccccc21 (stereo not shown) [compound 575, 5-(7-((1-(methylsulfonyl)-1,2,3,4-tetrahydroquinolin-4-yl)carbamoyl)-3-phenylquinoxalin-2-yl)pentanoic acid]	8.70 to 10.00
O=C(O)CCCCc1nc2cc(C(=O)NC3CC(=O)Nc4ccccc43)ccc2nc1-c1ccccc1 (stereo not shown) [compound 576, 5-(7-((2-oxo-1,2,3,4-tetrahydroquinolin-4-yl)carbamoyl)-3-phenylquinoxalin-2-yl)pentanoic acid]	7.70 to 8.68
O=C(O)CCCCc1nc2cc(C(=O)NC3CCCOc4ccccc43)ccc2nc1-c1ccc(Cl)cc1 (stereo not shown) [compound 579, 5-(3-(4-chlorophenyl)-7-((2,3,4,5-tetralaydrobenzo[b]oxepin-5-yl)carbamoyl)quinoxalin-2-yl)pentanoic acid]	7.70 to 8.68
O=C(O)CCCCc1nc2cc(C(=O)N[C@H]3COc4ccccc43)ccc2nc1-c1ccc(Cl)cc1 [compound 580, (R)-5-(3-(4-chlorophenyl)-7-((2,3-dihydrobenzofuran-3-yl)carbamoyl)quinoxalin-2-yl)pentanoic acid]	8.70 to 10.00
O=C(O)CCCCc1nc2cc(C(=O)N3CCC4(CCCc5ccccc54)C3)ccc2nc1-c1ccc(Cl)cc1 (stereo not shown) [compound 583, 5-(3-(4-chlorophenyl)-7-(3,4-dihydro-2H-spiro [naphthalene-1,3′-pyrrolidin]-1′-ylcarbonyl)quinoxalin-2-yl)pentanoic acid]	8.70 to 10.00
O=C(O)CCCCc1nc2cc(C(=O)N3CCN(C(=O)OCc4ccccc4)CC3)ccc2nc1-c1ccc(Cl)cc1 [compound 590, 5-(7-(4-((benzyloxy)carbonyl)piperazine-1-carbonyl)-3-(4-chlorophenyl)quinoxalin-2-yl)pentanoic acid]	7.70 to 8.68
O=C(O)CCCCc1nc2cc(C(=O)N3CCN(C(=O)c4ccco4)CC3)ccc2nc1-c1ccc(Cl)cc1 [compound 592, 5-(3-(4-chlorophenyl)-7-(4-(furan-2-carbonyl)piperazine-1-carbonyl)quinoxalin-2-yl)pentanoic acid]	7.70 to 8.68

Further lines, results first:

pKi	Compound
8.70 to 10.00	O=C(O)CCCCc1nc2cc(C(=O)N3CC[C@H](c4ccc(F)cc4)C3)ccc2nc1-c1ccc(Cl)cc1 [compound 577, (R)-5-(3-(4-chlorophenyl)-7-(3-(4-fluorophenyl)pyrrolidine-1-carbonyl)quinoxalin-2-yl)pentanoic acid]
8.70 to 10.00	CC1(C)CC(NC(=O)c2ccc3nc(-c4ccc(Cl)cc4)c(CCCCC(=O)O)nc3c2)c2ccccc2O1 (stereo not shown) [compound 582, 5-(3-(4-chlorophenyl)-7-((2,2-dimethylchroman-4-yl)carbamoyl)quinoxalin-2-yl)pentanoic acid]
7.70 to 8.68	O=C(O)CCCCc1nc2cc(C(=O)NC3C(=O)Nc4ccccc43)ccc2nc1-c1ccc(Cl)cc1 (stereo not shown) [compound 584, 5-(3-(4-chlorophenyl)-7-((2-oxoindolin-3-yl)carbamoyl)quinoxalin-2-yl)pentanoic acid]
6.70 to 7.70	COc1ccc2c(c1)CCC[C@H]2NC(=O)c1ccc2nc(-c3ccc(F)cc3)c(CCCC(F)(F)C(=O)O)nc2c1 [compound 589, (R)-2,2-difluoro-5-(3-(4-fluorophenyl)-7-((6-methoxy-1,2,3,4-tetrahydro-naphthalen-1-yl)carbamoyl)quinoxalin-2-yl)pentanoic acid]
7.70 to 8.68	O=C(O)CCCCc1nc2cc(C(=O)N3CCCN(Cc4ccccc4)CC3)ccc2nc1-c1ccc(Cl)cc1 [compound 591, 5-(7-(4-benzyl-1,4-diazepane-1-carbonyl)-3-(4-chlorophenyl)quinoxalin-2-yl)pentanoic acid]
8.70 to 10.00	CN(Cc1ccccc1)C(=O)c1ccc2nc(-c3ccc(Cl)cc3)c(CCCCC(=O)O)nc2c1 [compound 593, 5-(7-(benzyl(methyl)carbamoyl)-3-(4-chlorophenyl)quinoxalin-2-yl)pentanoic acid]
